A short description of data set [1]: Pharmacokinetics of 29 QLQX components in rat plasma by HPLC-MS/MS after intragastric QLQX.
Details of data set [2]: unit not given beside the values. As to conditions: rat, in vivo, po.
The nature of the next data set: in vivo. Particulars: Sprague-Dawley, rat, po.
[3] abbreviates: Sprague-Dawley, rat, in vivo, po, […].
[4] abbreviates: rat plasma, QLQX suspension […] intragastrically, mean ± SD.
[5] abbreviates: Sprague-Dawley, rat, plasma, po, […].

Usually half-life stands for how long it takes for the measured level to halve. Turning to `CCN1C[C@]2(COC)[C@H](O)C[C@H](OC)[C@@]34[C@@H]5C[C@@]6(O)[C@H](OC(=O)c7ccccc7)[C@@H]5[C@@](OC(C)=O)([C@@H]([C@H](OC)[C@H]23)[C@@H]14)[C@@H](O)[C@@H]6OC` [Aconitine], in data set [1] (setting [3]), the Tmax was 0.33 h and the half-life was 18.4 ± 5.44 h.
In the case of `CC(C)(O)C1CCC(C)(C2C(O)CC3(C)C4CC(OC5OC(CO)C(O)C(O)C5O)C5C(C)(C)C(OC6OCC(O)C(O)C6O)CCC56CC46CCC23C)O1` (centres unmarked) [Astragaloside], in data set [1] (setting [4]), the Tmax turned out to be 0.67 ± 0.00 and the t1/2 is listed as 5.74 ± 0.78.
For `CCN1C[C@]2(COC)[C@H](O)C[C@H](OC)[C@@]34[C@@H]5C[C@@]6(O)[C@H](OC(=O)c7ccccc7)[C@@H]5[C@@](O)([C@@H]([C@H](OC)[C@H]23)[C@@H]14)[C@@H](O)[C@@H]6OC` [Benzoylaconine], in that order: 1.00 ± 0.00 and 18.63 ± 7.20.
Consider `COC[C@@]12CC[C@H](OC)[C@]34C([C@H]([C@H](OC)[C@H]13)[C@]1(O)[C@H]3[C@@H](OC(=O)c5ccccc5)[C@](O)(C[C@H]34)[C@@H](OC)[C@@H]1O)N(C)C2` [Benzoylhypaconine], for which, in data set [1] (setting [4]), the Tmax came out at 0.67 ± 0.00 and the t1/2 came to 12.88 ± 3.47.
Turning to `COC[C@]12CN(C)C3[C@@H]4[C@H](OC)[C@H]1[C@@]3([C@@H](OC)C[C@H]2O)[C@@H]1C[C@@]2(O)[C@H](OC(=O)c3ccccc3)[C@@H]1[C@]4(O)[C@@H](O)[C@@H]2OC` [Benzoylmesaconine], in data set [1] (setting [4]), the Tmax came out at 0.67 ± 0.11 and the t1/2 was 8.23 ± 2.02.
As to `COc1ccc(-c2coc3cc(O[C@@H]4O[C@H](CO)[C@@H](O)[C@H](O)[C@H]4O)ccc3c2=O)cc1O` [Calycosin-7-glucoside], in data set [2], the “AUC0∼t” value came to 103.26 ± 47.63 and the “AUC0∼∞” value came to 120.71 ± 50.71.
As for `O=C(O)[C@H](O)Cc1ccc(O)c(O)c1` [Danshensu], in data set [2], the “AUC0∼t” value was found to be 290.92 ± 68.38 and the “AUC0∼∞” value came out at 390.90 ± 66.50.
With `COc1ccc(-c2coc3cc(O)ccc3c2=O)cc1` [Formononetin], in data set [1] (setting [5]), the Tmax is 0.17 h and the half-life was 5.07 ± 2.13 h.
Turning to `CC(C)=CCC[C@](C)(O[C@@H]1O[C@H](CO)[C@@H](O)[C@H](O)[C@H]1O)[C@H]1CC[C@]2(C)[C@@H]1[C@H](O)C[C@@H]1[C@@]3(C)CC[C@H](O[C@@H]4O[C@H](CO)[C@@H](O)[C@H](O)[C@H]4O)C(C)(C)[C@@H]3CC[C@]12C` [Ginsenoside F2], in the data set “in vivo”, the Tmax is 0.67 h and the half-life was 6.23 ± 2.89 h.
Turning to `CC(C)=CCC[C@](C)(O[C@@H]1O[C@H](CO[C@@H]2O[C@H](CO)[C@@H](O)[C@H](O)[C@H]2O)[C@@H](O)[C@H](O)[C@H]1O)[C@H]1CC[C@]2(C)[C@@H]1[C@H](O)C[C@@H]1[C@@]3(C)CC[C@H](O[C@@H]4O[C@H](CO)[C@@H](O)[C@H](O)[C@H]4O[C@@H]4O[C@H](CO)[C@@H](O)[C@H](O)[C@H]4O)C(C)(C)[C@@H]3CC[C@]12C` [Ginsenoside Rb1], in data set [1] (setting [5]), the Tmax stood at 0.67 h and the half-life was 9.16 ± 3.18 h.
Taken in the same sequence, the figures for `CC(C)=CCC[C@](C)(O[C@@H]1O[C@H](CO[C@@H]2OC[C@H](O)[C@H](O)[C@H]2O)[C@@H](O)[C@H](O)[C@H]1O)[C@H]1CC[C@]2(C)[C@@H]1[C@H](O)C[C@@H]1[C@@]3(C)CC[C@H](O[C@@H]4O[C@H](CO)[C@@H](O)[C@H](O)[C@H]4O[C@@H]4O[C@H](CO)[C@@H](O)[C@H](O)[C@H]4O)C(C)(C)[C@@H]3CC[C@]12C` [Ginsenoside Rb2] were 1.5 ± 0.06 h and 10.1 ± 4.53 h.
Taken in the same sequence, the figures for `CC(C)=CCC[C@](C)(O[C@@H]1O[C@H](CO[C@@H]2O[C@@H](CO)[C@H](O)[C@H]2O)[C@@H](O)[C@H](O)[C@H]1O)[C@H]1CC[C@]2(C)[C@@H]1[C@H](O)C[C@@H]1[C@@]3(C)CC[C@H](O[C@@H]4O[C@H](CO)[C@@H](O)[C@H](O)[C@H]4O[C@@H]4O[C@H](CO)[C@@H](O)[C@H](O)[C@H]4O)C(C)(C)[C@@H]3CC[C@]12C` [Ginsenoside Rc] were 0.67 h and 4.32 ± 2.1 h.
Taken in the same sequence, the figures for `CC(C)=CCC[C@](C)(O[C@@H]1O[C@H](CO)[C@@H](O)[C@H](O)[C@H]1O)[C@H]1CC[C@]2(C)[C@@H]1[C@H](O)C[C@@H]1[C@@]3(C)CC[C@H](O[C@@H]4O[C@H](CO)[C@@H](O)[C@H](O)[C@H]4O[C@@H]4O[C@H](CO)[C@@H](O)[C@H](O)[C@H]4O)C(C)(C)[C@@H]3CC[C@]12C` [Ginsenoside Rd] were 0.67 h and 5.9 ± 1.14 h.
With `CC(C)=CCC[C@](C)(O[C@@H]1O[C@H](CO)[C@@H](O)[C@H](O)[C@H]1O)[C@H]1CC[C@]2(C)[C@@H]1[C@H](O)C[C@@H]1[C@@]3(C)CC[C@H](O)C(C)(C)[C@@H]3[C@@H](O[C@@H]3O[C@H](CO)[C@@H](O)[C@H](O)[C@H]3O[C@@H]3O[C@@H](C)[C@H](O)[C@@H](O)[C@H]3O)C[C@]12C` [Ginsenoside Re], in data set [1] (setting [5]), the Tmax was 0.67 ± 0.06 h and the half-life is 7.33 ± 3.45 h.
On to `CC(C)=CCC[C@](C)(O)[C@H]1CC[C@]2(C)[C@@H]1[C@H](O)C[C@@H]1[C@@]3(C)CC[C@H](O)C(C)(C)[C@@H]3[C@@H](O[C@@H]3O[C@H](CO)[C@@H](O)[C@H](O)[C@H]3O[C@@H]3O[C@H](CO)[C@@H](O)[C@H](O)[C@H]3O)C[C@]12C` [Ginsenoside Rf], for which, in “in vivo”, the Tmax was 0.67 h and the half-life is 6.12 ± 3.53 h.
With `CC(C)=CCC[C@](C)(O[C@@H]1O[C@H](CO)[C@@H](O)[C@H](O)[C@H]1O)[C@H]1CC[C@]2(C)[C@@H]1[C@H](O)C[C@@H]1[C@@]3(C)CC[C@H](O)C(C)(C)[C@@H]3[C@@H](O[C@@H]3O[C@H](CO)[C@@H](O)[C@H](O)[C@H]3O)C[C@]12C` [Ginsenoside Rg1], in data set [1] (setting [5]), the Tmax is 0.67 h and the half-life was 8.69 ± 3.17 h.
As to `CC(C)=CCC[C@](C)(O)[C@H]1CC[C@]2(C)[C@@H]1[C@H](O)C[C@@H]1[C@@]3(C)CC[C@H](O[C@@H]4O[C@H](CO)[C@@H](O)[C@H](O)[C@H]4O[C@@H]4O[C@H](CO)[C@@H](O)[C@H](O)[C@H]4O)C(C)(C)[C@@H]3CC[C@]12C` [Ginsenoside Rg3], in data set [2], the “AUC0∼t” value amounted to 67.13 ± 27.93 and the “AUC0∼∞” value worked out at 89.81 ± 34.43.
In the case of `COc1ccc([C@@H]2CC(=O)c3c(O)cc(O[C@@H]4O[C@H](CO[C@@H]5O[C@@H](C)[C@H](O)[C@@H](O)[C@H]5O)[C@@H](O)[C@H](O)[C@H]4O)cc3O2)cc1O` [Hesperidin], in data set [2], the “AUC0∼t” value was found to be 154.32 ± 66.50 and the “AUC0∼∞” value stood at 187.77 ± 34.98.
On to `COC[C@@]12CC[C@H](OC)[C@]34C(C([C@H](OC)[C@H]13)[C@]1(OC(C)=O)[C@H]3[C@@H](OC(=O)c5ccccc5)[C@](O)(C[C@H]34)[C@@H](OC)[C@@H]1O)N(C)C2` [Hypaconitine], for which, in the data set “in vivo”, the Tmax was 0.33 h and the half-life was 8.01 ± 2.39 h.
For `O=C(/C=C/c1ccc(O)c2c1[C@H](C(=O)O)[C@@H](c1ccc(O)c(O)c1)O2)O[C@H](Cc1ccc(O)c(O)c1)C(=O)O` [Lithospermic acid], in data set [1] (setting [5]), the Tmax turned out to be 0.67 h and the half-life was 4.8 ± 0.89 h.
For the molecule `COC[C@]12CN(C)[C@@H]3[C@@H]4[C@H](OC)[C@H]1[C@@]3([C@@H](OC)C[C@H]2O)[C@@H]1C[C@@]2(O)[C@H](OC(=O)c3ccccc3)[C@@H]1[C@]4(OC(C)=O)[C@@H](O)[C@@H]2OC` [Mesaconitine], in data set [1] (setting [4]), the Tmax is recorded as 0.17 ± 0.06 and the t1/2 was determined as 6.23 ± 1.23.
In the case of `O=C(O)c1ccc(O)c(O)c1` [Protocatechuic acid], in data set [1] (setting [5]), the Tmax stood at 0.67 h and the half-life is 8.38 ± 1.02 h.
Taken in the same sequence, the figures for `O=c1c(O)c(-c2ccc(O)c(O)c2)oc2cc(O)cc(O)c12` [Quercetin] were 0.67 h and 5.04 ± 0.98 h.
For the molecule `O=C(/C=C/c1ccc(O)c(O)c1)O[C@H](Cc1ccc(O)c(O)c1)C(=O)O` [Rosmarinic acid], in the data set “in vivo”, the Tmax worked out at 0.67 h and the half-life is 5.28 ± 1.35 h.
Taken in the same sequence, the figures for `C[C@@H]1O[C@@H](OC[C@H]2O[C@@H](Oc3c(-c4ccc(O)c(O)c4)oc4cc(O)cc(O)c4c3=O)[C@H](O)[C@@H](O)[C@@H]2O)[C@H](O)[C@H](O)[C@H]1O` [Rutin] were 0.33 h and 5.33 ± 1.27 h.
For `O=C(/C=C/c1ccc(O)c(O)c1/C=C/c1ccc(O)c(O)c1)O[C@H](Cc1ccc(O)c(O)c1)C(=O)O` [Salvianolic acid A], in that order: 0.17 h and 7.5 ± 4.92 h.
Turning to `COc1cc(/C=C/C(=O)OCC[N+](C)(C)C)cc(OC)c1O.O=S(=O)([O-])O` [Sinapine bisulfate], in data set [2], the “AUC0∼t” value is reported as 3.98 ± 1.21 and the “AUC0∼∞” value came out at 8.76 ± 2.85.
With Salvianolic acid B, in data set [2], the “AUC0∼t” value stood at 818.47 ± 249.00 and the “AUC0∼∞” value is 980.47 ± 112.07.

The values are drawn from PMC6759796, “Integrating Pharmacokinetics Study, Network Analysis, and Experimental Validation to Uncover the Mechanism of Qiliqiangxin Capsule Against Chronic Heart Failure” (Frontiers in Pharmacology, 2019).
